This note sets out measurements from patent US11566057B2, “Long-acting co-agonists of the glucagon and GLP-1 receptors” (Merck Sharp & Dohme Corp., priority 2017, dated 2023).

One assay has as its target T1, human GCGR (Homo sapiens, UniProt P47871).
T1 construct: expressed in transfected cells; growth medium holds Blasticidin and Hygromycin
Briefly: cAMP activity assay at the Glucagon receptor (GCGR). Type of assay: cell-based. The settings on record: for hGCGR/hGLP1R (hTone): ratio of GCGR EC50 to GLP1R EC50. The method in brief:
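Peptides serially diluted from DMSO (10 points) and added to frozen-stock cells bearing human GLP1R (10,000 cells/well) or GCGR (30,000 cells/well), 1 h at RT, dark. EC50 by four-parameter logistic fit of HitHunter cAMPXS luminescence, read following overnight RT incubation.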

Another assay has as its target T2, human GLP1R (Homo sapiens, UniProt P43220).
T2 construct: expressed in transfected cells; growth medium holds Blasticidin and Hygromycin
Briefly: cAMP activity assay at the GLP-1 receptor (GLP1R). The format is cell-based. The protocol: Activity of the peptides at the Glucagon receptor (GCGR) and GLP-1 receptor (GLP1R) was measured in a cAMP activity assay.
GCG/GLP-1 receptor co-agonist peptides were dissolved in 100% DMSO (dimethyl sulfoxide) and serially diluted to generate 10 point titrations. The peptide solutions were then transferred into 384-well assay plates (150 nL/well). Assay ready frozen cells expressing human GLP1R or human GCGR were suspended in growth media consisting of DMEM medium (GIBCO®), 10% FBS (GIBCO®), 1×NEAA(GIBCO®), 1×P/S (GIBCO®), 10 ug/mL Blasticidin (GIBCO®) and 200 μg/mL Hygromycin (GIBCO®). […] The cell suspensions (15 μL) were then added to the assay plates containing the peptide solutions (30,000 cells/well for human GCGR; 10,000 cells/well for human GLP1R). The cells were incubated for 1 hour at room temperature in the dark. Production of cAMP was determined using HitHunter™ cAMPXS kits (DiscoverX) following manufacturer protocol. The plates were incubated for overnight at room temperature in the dark. Luminescence was measured using an EnVision Multilabel plate reader (Perkin Elmer). Native GLP-1 and Glucagon (Bachem) are used as control peptides. EC50 values were calculated using uses a 4 parameter logistic fit based on the Levenberg-Marquardt algorithm.

The mark [1] stands for this setting: cells expressing human GCGR, cAMP production, buffer with or without 20% human serum (not stated which), read-out: GCGR EC50 human.
The mark [2] stands for this setting: summary statement: EC50 at each of the glucagon and GLP-1 receptors, read-out: EC50 at the glucagon receptor.
Where [3] appears, read: summary statement: EC50 at each of the glucagon and GLP-1 receptors, read-out: EC50 at the GLP-1 receptor.

pEC50: −log10 of the molar value. Read-outs that look alike come from different tables or passages of the source. Numbered stars: 1 amine (or outer) side, 2 acyl side, 3 side chain; on linkers, the order of the positions; unused ones are H or OH. Square brackets hold non-standard residues; d marks the D form. Side chains are listed from the residue outwards. Peptide text beside a SMILES is read from it. * marks the point of attachment. C20 diacid = O=C(O)CCCCCCCCCCCCCCCCCCC(=O)*; Phe(4-CH2NH2) = NCc1ccc(C[C@H](N)C(=O)O)cc1; γGlu = O=C(O)[C@H](CCC(=O)[*:2])N[*:1]; Met(O2) = CS(=O)(=O)CC[C@H](N)C(=O)O; AEEA = NCCOCCOCC(=O)O; Aib = CC(C)(N)C(=O)O Some results are limits rather than exact numbers.

T2 sequence (P43220 24-463): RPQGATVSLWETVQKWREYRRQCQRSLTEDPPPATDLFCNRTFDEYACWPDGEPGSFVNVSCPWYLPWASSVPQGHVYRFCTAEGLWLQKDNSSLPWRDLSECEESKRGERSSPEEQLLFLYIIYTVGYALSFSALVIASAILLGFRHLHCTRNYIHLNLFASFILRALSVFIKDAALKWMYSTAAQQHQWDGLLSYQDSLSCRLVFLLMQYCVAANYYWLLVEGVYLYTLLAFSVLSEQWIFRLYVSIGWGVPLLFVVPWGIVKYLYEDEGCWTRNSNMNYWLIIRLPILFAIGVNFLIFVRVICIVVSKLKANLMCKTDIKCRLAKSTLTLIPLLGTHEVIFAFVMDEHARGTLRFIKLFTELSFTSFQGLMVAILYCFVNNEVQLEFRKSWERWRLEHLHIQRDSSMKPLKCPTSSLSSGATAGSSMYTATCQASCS
T1 sequence (P47871 26-477): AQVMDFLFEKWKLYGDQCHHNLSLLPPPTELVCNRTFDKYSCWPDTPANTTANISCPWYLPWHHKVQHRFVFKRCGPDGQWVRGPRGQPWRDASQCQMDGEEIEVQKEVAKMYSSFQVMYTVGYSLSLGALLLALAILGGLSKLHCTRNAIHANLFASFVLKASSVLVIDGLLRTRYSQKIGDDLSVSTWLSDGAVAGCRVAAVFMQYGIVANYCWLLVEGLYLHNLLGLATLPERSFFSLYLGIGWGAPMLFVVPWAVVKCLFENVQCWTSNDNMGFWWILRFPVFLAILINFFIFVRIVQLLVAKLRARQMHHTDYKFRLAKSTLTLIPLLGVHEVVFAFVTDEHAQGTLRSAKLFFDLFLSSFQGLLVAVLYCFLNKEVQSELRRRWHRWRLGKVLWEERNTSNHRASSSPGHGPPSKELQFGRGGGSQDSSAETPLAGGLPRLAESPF

As for `CC(C)C[C@H](NC(=O)[C@H](Cc1c[nH]c2ccccc12)NC(=O)[C@H](CCCCNC(=O)COCCOCCNC(=O)COCCOCCNC(=O)CC[C@H](NC(=O)CCCCCCCCCCCCCCCCCCC(=O)O)C(=O)O)NC(=O)[C@@H](NC(=O)[C@H](Cc1ccccc1)NC(=O)[C@H](CC(=O)O)NC(=O)[C@H](CCC(N)=O)NC(=O)[C@H](C)NC(=O)[C@H](C)NC(=O)[C@H](CCCNC(=N)N)NC(=O)C(C)(C)NC(=O)[C@H](CC(=O)O)NC(=O)[C@H](CC(C)C)NC(=O)[C@H](Cc1ccc(O)cc1)NC(=O)[C@H](CCCCN)NC(=O)[C@H](CO)NC(=O)[C@H](Cc1ccc(O)cc1)NC(=O)[C@H](CC(=O)O)NC(=O)[C@H](CO)NC(=O)[C@@H](NC(=O)[C@H](Cc1ccccc1)NC(=O)[C@@H](NC(=O)CNC(=O)[C@H](CCC(N)=O)NC(=O)C(C)(C)NC(=O)[C@@H](N)Cc1c[nH]cn1)[C@@H](C)O)[C@@H](C)O)C(C)C)C(=O)N[C@@H](CCS(C)(=O)=O)C(=O)N[C@@H](CC(=O)O)C(=O)N[C@H](C(N)=O)[C@@H](C)O` [TP576] (H-H[Aib]QGTFTSDYSKYLD[Aib]RAAQDFVK([AEEA-AEEA-γGlu-C20 diacid])WL[Met(O2)]DT-NH2; N-terminus assumed), the pEC50 at human GCGR (setting [1]) is 8.84; on human GCGR (setting [2]) it was over 8.30; on human GLP1R (setting [3]), over 8.30. The “hGCGR/hGLP1R (hTone)” value on human GCGR amounted to 0.8.
In the case of `CC(C)C[C@H](NC(=O)[C@H](Cc1ccc(O)cc1)NC(=O)[C@H](CCCCN)NC(=O)[C@H](CO)NC(=O)[C@H](Cc1ccc(O)cc1)NC(=O)[C@H](CC(=O)O)NC(=O)[C@H](CO)NC(=O)[C@@H](NC(=O)[C@H](Cc1ccccc1)NC(=O)[C@@H](NC(=O)CNC(=O)[C@H](CCC(N)=O)NC(=O)C(C)(C)NC(=O)[C@@H](N)Cc1c[nH]cn1)[C@@H](C)O)[C@@H](C)O)C(=O)N[C@@H](CC(=O)O)C(=O)N[C@@H](CO)C(=O)N[C@@H](CCCNC(=N)N)C(=O)N[C@@H](C)C(=O)N[C@@H](C)C(=O)N[C@@H](CCCCNC(=O)COCCOCCNC(=O)COCCOCCNC(=O)CC[C@H](NC(=O)CCCCCCCCCCCCCCCCCCC(=O)O)C(=O)O)C(=O)N[C@@H](CC(=O)O)C(=O)N[C@@H](Cc1ccccc1)C(=O)N[C@H](C(=O)N[C@@H](CCC(N)=O)C(=O)N[C@@H](Cc1c[nH]c2ccccc12)C(=O)N[C@@H](CC(C)C)C(=O)N[C@@H](CCS(C)(=O)=O)C(=O)N[C@@H](CC(=O)O)C(=O)N[C@H](C(N)=O)[C@@H](C)O)C(C)C` [TP577] (H-H[Aib]QGTFTSDYSKYLDSRAAK([AEEA-AEEA-γGlu-C20 diacid])DFVQWL[Met(O2)]DT-NH2; N-terminus assumed), the values for the pEC50 at human GCGR (setting [1]), on human GCGR (setting [2]) and on human GLP1R (setting [3]) were 8.34, over 8.30 and over 8.30, respectively. For the same compound, on human GCGR, the “hGCGR/hGLP1R (hTone)” value was found to be 2.7.
With `CC(C)C[C@H](NC(=O)[C@H](Cc1c[nH]c2ccccc12)NC(=O)[C@H](CCC(N)=O)NC(=O)[C@@H](NC(=O)[C@H](Cc1ccccc1)NC(=O)[C@H](CC(=O)O)NC(=O)[C@H](CCCCNC(=O)COCCOCCNC(=O)COCCOCCNC(=O)CC[C@H](NC(=O)CCCCCCCCCCCCCCCCCCC(=O)O)C(=O)O)NC(=O)[C@H](C)NC(=O)[C@H](C)NC(=O)[C@H](CCCNC(=N)N)NC(=O)C(C)(C)NC(=O)[C@H](CC(=O)O)NC(=O)[C@H](CC(C)C)NC(=O)[C@H](Cc1ccc(O)cc1)NC(=O)[C@H](CCCCN)NC(=O)[C@H](CO)NC(=O)[C@H](Cc1ccc(O)cc1)NC(=O)[C@H](CC(=O)O)NC(=O)[C@H](CO)NC(=O)[C@@H](NC(=O)[C@H](Cc1ccccc1)NC(=O)[C@@H](NC(=O)CNC(=O)[C@H](CCC(N)=O)NC(=O)[C@@H](CO)NC(=O)[C@@H](N)Cc1c[nH]cn1)[C@@H](C)O)[C@@H](C)O)C(C)C)C(=O)N[C@@H](CCS(C)(=O)=O)C(=O)N[C@@H](CC(=O)O)C(=O)N[C@H](C(N)=O)[C@@H](C)O` [TP578], the pEC50 on human GCGR (setting [2]) was over 8.30; at human GLP1R (cells expressing human GLP1R, cAMP production, buffer with or without 20% human serum (not stated which), read-out: GLP1R EC50 human) it was 8.31; on human GLP1R (setting [3]), over 8.30.
For the compound `CC(C)C[C@H](NC(=O)[C@H](Cc1ccc(O)cc1)NC(=O)[C@H](CCCCN)NC(=O)[C@H](CO)NC(=O)[C@H](Cc1ccc(CNC(=O)COCCOCCNC(=O)COCCOCCNC(=O)CC[C@H](NC(=O)CCCCCCCCCCCCCCCCCCC(=O)O)C(=O)O)cc1)NC(=O)[C@H](CC(=O)O)NC(=O)[C@H](CO)NC(=O)[C@@H](NC(=O)[C@H](Cc1ccccc1)NC(=O)[C@@H](NC(=O)CNC(=O)[C@H](CCC(N)=O)NC(=O)C(C)(C)NC(=O)[C@@H](N)Cc1c[nH]cn1)[C@@H](C)O)[C@@H](C)O)C(=O)N[C@@H](CC(=O)O)C(=O)N[C@@H](C)C(=O)N[C@@H](CCCNC(=N)N)C(=O)N[C@@H](C)C(=O)N[C@@H](C)C(=O)N[C@@H](CCC(N)=O)C(=O)N[C@@H](CC(=O)O)C(=O)N[C@@H](Cc1ccccc1)C(=O)N[C@H](C(=O)N[C@@H](CCC(N)=O)C(=O)N[C@@H](Cc1c[nH]c2ccccc12)C(=O)N[C@@H](CC(C)C)C(=O)N[C@@H](CCS(C)(=O)=O)C(=O)N[C@@H](CC(=O)O)C(=O)N[C@H](C(N)=O)[C@@H](C)O)C(C)C` [TP580] (H-H[Aib]QGTFTSD[Phe(4-CH2NH2)]([AEEA-AEEA-γGlu-C20 diacid])SKYLDARAAQDFVQWL[Met(O2)]DT-NH2; N-terminus assumed), the values for the pEC50 at human GCGR (setting [1]), on human GCGR (setting [2]) and on human GLP1R (setting [3]) were 8.96, over 8.30 and over 8.30, respectively. Also, the “hGCGR/hGLP1R (hTone)” value on human GCGR was 2.4.
For `CCCCCCCCCCCCCCCc1cn(CCCC[C@H](NC(=O)[C@H](CC(=O)O)NC(=O)[C@H](CO)NC(=O)[C@@H](NC(=O)[C@H](Cc2ccccc2)NC(=O)[C@@H](NC(=O)CNC(=O)[C@H](CCC(N)=O)NC(=O)[C@@H](CO)NC(=O)[C@@H](N)Cc2c[nH]cn2)[C@@H](C)O)[C@@H](C)O)C(=O)N[C@@H](CO)C(=O)N[C@@H](CCCCN)C(=O)N[C@@H](Cc2ccc(O)cc2)C(=O)N[C@@H](CC(C)C)C(=O)N[C@@H](CC(=O)O)C(=O)N[C@@H](C)C(=O)N[C@@H](CCCNC(=N)N)C(=O)N[C@@H](C)C(=O)N[C@@H](C)C(=O)N[C@@H](CCC(N)=O)C(=O)N[C@@H](CC(=O)O)C(=O)N[C@@H](Cc2ccccc2)C(=O)N[C@H](C(=O)N[C@@H](CCC(N)=O)C(=O)N[C@@H](Cc2c[nH]c3ccccc23)C(=O)N[C@@H](CC(C)C)C(=O)N[C@@H](CC(C)C)C(=O)N[C@@H](CC(=O)O)C(=O)N[C@H](C(N)=O)[C@@H](C)O)C(C)C)nn1` [TP829], on human GCGR, the “hGCGR/hGLP1R (hTone)” value was 1.56.
On to “HsQGTFTSDNle(1,2,3-triazole-4-C4-Lys-C16)SKYLDARAAQDFVQWLLDT-NH2 (HXQGTFTSDXSKYLDARAAQDFVQWLLDT; D-Ser, Nle-triazole-C4-Lys-C16 lipid; C-terminal amide; peptide TP831; (2)..(2) Xaa is D-Serine; (10)..(10) Xaa is Nle(1,2,3-triazole-4-C4-Lys-C16); (29)..(29) Xaa is C-terminal amide)”, for which, in the assay with human GCGR, the “hGCGR/hGLP1R (hTone)” value is 1.66.
Same read-out and setting: with “HsQGTFTSDNle(1,2,3-triazole-4-γE-C16)SKYLDARAAQDFVQWLLDT-NH2 (HXQGTFTSDXSKYLDARAAQDFVQWLLDT; D-Ser, Nle-triazole-γE-C16 lipid; C-terminal amide; peptide TP830; (2)..(2) Xaa is D-Serine; (10)..(10) Xaa is Nle(1,2,3-triazole-4-gammaGlu-C16); (29)..(29) Xaa is C-terminal amide)” the figure was 0.64.

As a reminder, the pEC50 is the EC50 on a negative log10 scale, so that one unit is a factor of ten.
